± gives the expanded uncertainty stated by the source.
How the values were obtained:
[1] = 303.15 K; 101 kPa; Liquid
[2] = refractive index (Na D-line) (dimensionless); conditions: 303.15 K; 101.33 kPa; Liquid; Standard Abbe refractometry
[3] = xn = mol fraction of the nth substance listed; conditions: 303.15 K, 101 kPa, Liquid
[4] = refractive index (Na D-line) (dimensionless); xn = mol fraction of the nth substance listed; conditions: 303.15 K, 101 kPa, Liquid, Standard Abbe refractometry
[5] = excess molar enthalpy (molar enthalpy of mixing); xn = mol fraction of the nth substance listed; conditions: 303 K, 101 kPa, Liquid

CCC(C)=O [butanone]
Conditions	mass density [kg/m3]	refractive index	viscosity [mPa·s]
[1]	794.5 ± 0.3	–	0.347 ± 0.014
[2]	–	1.37383 ± 0.00031	–

CCCCO [butan-1-ol]
Conditions	mass density [kg/m3]	refractive index	viscosity [mPa·s]
[1]	802.2 ± 0.3	–	2.195 ± 0.05
[2]	–	1.39479 ± 0.00031	–

CCCCO [butan-1-ol] + CCC(C)=O
x1 = 1
Conditions	excess molar enthalpy [kcal/mol]	mass density [kg/m3]	refractive index	viscosity [mPa·s]
[3]	–	802.2 ± 0.3	–	2.195 ± 0.05
[4]	–	–	1.39479 ± 0.00031	–
[5]	0 ± 0.00191	–	–	–

CCC(C)=O [butanone] + CCCCO
Conditions	excess molar enthalpy [kcal/mol]	mass density [kg/m3]	refractive index	viscosity [mPa·s]
[3], x2 = 0	–	794.5 ± 0.3	–	0.347 ± 0.014
[3], x2 = 0.0704	–	–	–	0.364 ± 0.014
[3], x2 = 0.0765	–	795 ± 0.3	–	–
[3], x2 = 0.1392	–	795.4 ± 0.3	–	–
[3], x2 = 0.1468	–	–	–	0.388 ± 0.015
[3], x2 = 0.2097	–	795.9 ± 0.3	–	–
[3], x2 = 0.2163	–	–	–	0.421 ± 0.015
[3], x2 = 0.2775	–	796.4 ± 0.3	–	–
[3], x2 = 0.2818	–	–	–	0.455 ± 0.015
[3], x2 = 0.3429	–	–	–	0.479 ± 0.016
[3], x2 = 0.3488	–	796.9 ± 0.3	–	–
[3], x2 = 0.4244	–	–	–	0.553 ± 0.017
[3], x2 = 0.442	–	797.6 ± 0.3	–	–
[3], x2 = 0.4933	–	798 ± 0.3	–	–
[3], x2 = 0.4988	–	–	–	0.615 ± 0.018
[3], x2 = 0.5008	–	798.1 ± 0.3	–	–
[3], x2 = 0.5577	–	798.5 ± 0.3	–	–
[3], x2 = 0.5755	–	–	–	0.704 ± 0.019
[3], x2 = 0.6404	–	799.2 ± 0.3	–	–
[3], x2 = 0.6474	–	799.3 ± 0.3	–	0.813 ± 0.021
[3], x2 = 0.7105	–	–	–	0.925 ± 0.023
[3], x2 = 0.7257	–	799.9 ± 0.3	–	–
[3], x2 = 0.7799	–	–	–	1.091 ± 0.027
[3], x2 = 0.7944	–	800.5 ± 0.3	–	–
[3], x2 = 0.8562	–	801 ± 0.3	–	–
[3], x2 = 0.8596	–	–	–	1.342 ± 0.032
[3], x2 = 0.9263	–	–	–	1.645 ± 0.039
[3], x2 = 0.9307	–	801.6 ± 0.3	–	–
[4], x2 = 0	–	–	1.37383 ± 0.00031	–
[4], x2 = 0.0765	–	–	1.37557 ± 0.00031	–
[4], x2 = 0.1392	–	–	1.37702 ± 0.00031	–
[4], x2 = 0.2097	–	–	1.37867 ± 0.00031	–
[4], x2 = 0.2775	–	–	1.3802 ± 0.00031	–
[4], x2 = 0.3488	–	–	1.3819 ± 0.00031	–
[4], x2 = 0.442	–	–	1.38402 ± 0.00031	–
[4], x2 = 0.4933	–	–	1.38514 ± 0.00031	–
[4], x2 = 0.5008	–	–	1.38533 ± 0.00031	–
[4], x2 = 0.5577	–	–	1.3866 ± 0.00031	–
[4], x2 = 0.6404	–	–	1.38835 ± 0.00031	–
[4], x2 = 0.6474	–	–	1.38848 ± 0.00031	–
[4], x2 = 0.7257	–	–	1.39011 ± 0.00031	–
[4], x2 = 0.7944	–	–	1.39145 ± 0.00031	–
[4], x2 = 0.8562	–	–	1.3926 ± 0.00031	–
[4], x2 = 0.9307	–	–	1.39387 ± 0.00031	–
[5], x2 = 0	0 ± 0.00191	–	–	–
[5], x2 = 0.134	0.154 ± 0.0158	–	–	–
[5], x2 = 0.193	0.22 ± 0.0201	–	–	–
[5], x2 = 0.289	0.281 ± 0.0239	–	–	–
[5], x2 = 0.35	0.324 ± 0.0287	–	–	–
[5], x2 = 0.425	0.352 ± 0.0311	–	–	–
[5], x2 = 0.514	0.351 ± 0.0287	–	–	–
[5], x2 = 0.619	0.337 ± 0.0287	–	–	–
[5], x2 = 0.7	0.293 ± 0.0263	–	–	–
[5], x2 = 0.769	0.268 ± 0.0239	–	–	–
[5], x2 = 0.82	0.203 ± 0.0189	–	–	–
[5], x2 = 0.911	0.141 ± 0.0148	–	–	–

Reference: the NIST ThermoML archive (doi:10.1016/j.jct.2007.06.009)
